Experimental data published in patent US20250073303A1, “TDP-43 Interference Peptides, Methods, and Uses Thereof” (The University of British Columbia, priority 2022, published 2025).

Tests used:
TDP-43 = TDP-43 (Mus musculus, UniProt Q921F2); experiment: LPS (1 mg/kg daily, 7 days) plus sciatic nerve axotomy in mice: TDP-43 aggregation by western blotting; type: in vivo; set-up: from tissue; host or cells: ventral lumbosacral spinal cord of mice, axotomy side; conditions: LPS 1 mg/kg daily i.p. for 7 days plus axotomy; 20 mg/kg i.p.; vs control mice
Experimental: FIG. 17: Example peptide D reduces TDP-43 aggregates in lumbar spinal cord of mice with sciatic nerve axotomy and 7 days of LPS administration. Mice underwent sciatic nerve axotomy (day 0) and LPS (1 mg/kg, daily, i.p.) administration for 7 days (days 0-7). TDP-43 aggregation in lumbar spinal cord was evaluated by western blotting.
Since LPS causes systematic inflammation, microglia activation in ventral horn of spinal cord was first detected by staining with an Iba-1 antibody. […] In this setting, motor neuron loss in the lower limb motoneuron group in L5/6 of spinal cord was observed, as confirmed by staining with ChAT and NeuN antibodies. […] TDP-43 and phosphoTDP-43 insolubility in lumbar spinal cord was also confirmed by western blotting.

[1] = system: mice with LPS plus sciatic nerve axotomy; experiment: LPS (1 mg/kg daily) plus sciatic nerve axotomy in mice: microglia activation and motor neuron death; type: in vivo, mouse; conditions: LPS 1 mg/kg daily i.p. plus axotomy
Experimental: FIG. 15: Example peptide D reduces microglia activation in lumbar spinal cord of mice with LPS plus sciatic nerve axotomy. Mice underwent LPS administration (1 mg/kg, daily, i.p.) plus sciatic nerve axotomy on day 0 and tissues were collected and fixed on day 7 post-surgery. Iba-1 staining of lumbar spinal cord of mice in each indicated group were counterstained with DAPI. 20 mg/kg of peptide D was injected daily through the i.p. route.
FIG. 16: Example peptide D prevents motor neuron death in ventral horn of spinal cord (L6) of mice with LPS plus sciatic nerve axotomy. Mice underwent LPS treatment (1 mg/kg, daily, i.p.) plus sciatic nerve axotomy on day 0 and tissue was collected and fixed on day 7 post-surgery. Markers of (A) ChAT staining (red) indicating motor neurons and (B) NeuN staining (green) counterstained with DAPI indicated alpha motor neurons in ventral horn of mice in each group. […]
Although neurodegeneration was detected in spinal cord of mice treated with a high dose of LPS (5 mg/kg, i.p.) plus sciatic nerve axotomy, motor neuron death was not observed in this model. […]
Since LPS causes systematic inflammation, microglia activation in ventral horn of spinal cord was first detected by staining with an Iba-1 antibody. […]

SH-SY5Y cells = experiment: Stress granule (TIA-1) numbers in SH-SY5Y cells with sodium arsenite; type: cell-based, human; conditions: 1 mM sodium arsenite 1 hour, TIA-1 staining, vs scramble
[2] = system: mice with LPS plus sciatic nerve axotomy; experiment: LPS (5 mg/kg) plus sciatic nerve axotomy in mice: Fluoro Jade C neurodegeneration staining; type: in vivo, mouse; conditions: 20 mg/kg daily i.p., day 7
Experimental: FIG. 14: Example peptide D prevents neurodegeneration in ventral horn of spinal cord of mice with LPS plus sciatic nerve axotomy. Mice underwent LPS administration (5 mg/kg, i.p.) plus sciatic nerve axotomy on day 0 and tissues were collected and fixed on day 7 after the surgical procedure. Fluoro Jade (neurodegeneration marker) staining of ventral horn of spinal cord of mice in each indicated treatment group (upper panel) and counterstained with DAPI (lower panel). 20 mg/kg of peptide D was injected daily through i.p. route.
Neurodegeneration in the lumbar spinal cord of mice 7 days after administration of LPS plus surgery was then evaluated using Fluoro Jade C staining. Animals were divided into two peptide D treatment groups. In one group, peptide D administration started on the day of surgery, and in the other group, peptide D treatment started at 3 days post-surgery when the TDP-43 proteinopathies were at their maximum.

Chain of TDP-43 (Q921F2 whole entry): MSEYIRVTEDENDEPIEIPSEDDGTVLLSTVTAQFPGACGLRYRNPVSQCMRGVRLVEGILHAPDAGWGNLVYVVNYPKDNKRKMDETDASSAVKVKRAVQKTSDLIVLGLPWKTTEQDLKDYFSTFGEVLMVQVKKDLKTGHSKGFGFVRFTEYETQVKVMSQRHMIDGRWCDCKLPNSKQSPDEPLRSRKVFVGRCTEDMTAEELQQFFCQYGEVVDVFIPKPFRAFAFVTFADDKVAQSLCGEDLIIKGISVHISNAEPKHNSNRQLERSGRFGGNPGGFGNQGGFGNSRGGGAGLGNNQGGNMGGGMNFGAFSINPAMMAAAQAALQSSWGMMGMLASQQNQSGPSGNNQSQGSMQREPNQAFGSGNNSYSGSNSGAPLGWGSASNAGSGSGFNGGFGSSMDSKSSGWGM

Q: How did the “TDP-43 aggregation in lumbar spinal cord” value (TDP-43) turn out when “peptide D: candidate peptide from a CK-1δ binding region for TDP-43, truncated HIV-1 TAT domain added at the N-terminal (YGRKKRRQRRRGFSYDYVFDWNMLK)” was run?
A: reduced

Q: What about the “general microglia activation in lumbar spinal cord (Iba-1)” value ([1]; day 7, 20 mg/kg daily i.p.) of the same substance?
A: reduced

Q: What about the “motor neuron death (ChAT and NeuN staining)” value ([1]; day 7 post-surgery) of the same substance?
A: less motor neuron death

Q: And the “number of stress granules (SGs) induced by sodium arsenite” value (SH-SY5Y cells)?
A: reduced

Q: What about the “neurodegeneration in the ventral horn of spinal cord (Fluoro Jade C)” value ([2]; administration started on the day of surgery) of the same substance?
A: less neurodegeneration

Q: What about the “neurodegeneration in the ventral horn of spinal cord (Fluoro Jade C)” value ([2]; treatment started at 3 days post-surgery) of the same substance?
A: less neurodegeneration
